Test results reported in ChEMBL document CHEMBL1151843, “Chromones from the endophytic fungus Pestalotiopsis sp. isolated from the chinese mangrove plant Rhizophora mucronata” (J Nat Prod, 2009).
Values after ≈ are worked out from the molar mass of the structure shown.

System: L5178Y
Assay: Cytotoxicity against mouse L5178Y cells after 72 hrs by MTT assay; call rule not given here
Type: functional, cell-based

Compound | EC50 (l5178y) | EC50 (Mus musculus, L5178Y, 72 h, read-out: EC50)
Cc1cc(O)cc2oc(C[C@H](C)O)cc(=O)c12 | Not Active | 
CCCCCCCc1cc(=O)c2c(CC(=O)OC)cc(O)cc2o1 [PESTALOTIOPSONE A] | Not Active | 
CCCCCCCc1cc(=O)c2c(CC(=O)OCC)cc(O)cc2o1 [PESTALOTIOPSONE B] | Not Active | 
CCCCCCCc1cc(=O)c2c(CC(=O)O)cc(O)cc2o1 [PESTALOTIOPSONE C] | Not Active | 
COC(=O)Cc1cc(O)cc2oc(CCCCCC(C)O)cc(=O)c12 (configuration not stated) [PESTALOTIOPSONE D] | Not Active | 
CCOC(=O)Cc1cc(O)cc2oc(CCCCCC(C)O)cc(=O)c12 (configuration not stated) [PESTALOTIOPSONE E] | Not Active | 
CCCCCc1cc(=O)c2c(CC(=O)OC)cc(O)cc2o1 [PESTALOTIOPSONE F] |  | 8.93 mg/L (≈ 29.3 µM)
